Data published in publication PMC4658577 (Frontiers in Plant Science, 2015).

Columns and labels:
Format in all cases: cell-based
[1] = target: T1, ANO1/CaCC (TMEM16A) (Homo sapiens, UniProt Q5XXA6); assay: Eact-induced short-circuit current in ANO1-expressing FRT cells, […]
T1 construct: ANO1 cDNA
T1 sequence (Q5XXA6 1-986): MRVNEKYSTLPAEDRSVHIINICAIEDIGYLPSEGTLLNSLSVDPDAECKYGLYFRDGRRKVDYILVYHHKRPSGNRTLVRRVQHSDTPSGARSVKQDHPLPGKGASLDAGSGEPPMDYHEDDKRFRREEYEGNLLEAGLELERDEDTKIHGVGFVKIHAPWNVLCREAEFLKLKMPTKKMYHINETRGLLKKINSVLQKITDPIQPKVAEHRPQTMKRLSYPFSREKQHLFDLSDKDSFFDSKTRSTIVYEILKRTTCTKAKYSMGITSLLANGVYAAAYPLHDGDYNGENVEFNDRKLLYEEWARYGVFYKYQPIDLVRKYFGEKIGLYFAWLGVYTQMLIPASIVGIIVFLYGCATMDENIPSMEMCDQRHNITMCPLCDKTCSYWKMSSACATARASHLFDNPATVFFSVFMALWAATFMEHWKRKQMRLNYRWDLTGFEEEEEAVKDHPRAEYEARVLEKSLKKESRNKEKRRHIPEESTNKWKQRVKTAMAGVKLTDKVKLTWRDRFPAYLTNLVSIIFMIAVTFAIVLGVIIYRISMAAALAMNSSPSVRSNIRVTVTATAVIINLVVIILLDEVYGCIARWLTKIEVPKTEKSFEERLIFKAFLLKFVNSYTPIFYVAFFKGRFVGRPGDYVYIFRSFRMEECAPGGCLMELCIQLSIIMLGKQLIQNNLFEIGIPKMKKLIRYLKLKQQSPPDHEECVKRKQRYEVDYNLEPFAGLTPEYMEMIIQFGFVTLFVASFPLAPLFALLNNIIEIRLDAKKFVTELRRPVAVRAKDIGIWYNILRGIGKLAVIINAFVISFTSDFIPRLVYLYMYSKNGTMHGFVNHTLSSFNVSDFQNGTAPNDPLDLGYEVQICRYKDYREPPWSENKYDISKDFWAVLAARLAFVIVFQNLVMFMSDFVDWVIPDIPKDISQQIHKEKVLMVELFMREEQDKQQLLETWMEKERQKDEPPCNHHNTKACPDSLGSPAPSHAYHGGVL

[2] = target: T2, cystic fibrosis transmembrane conductance regulator (CFTR) (Homo sapiens, UniProt P13569); assay: gradient concentrations inhibiting lignan-activated CFTR iodide influx in FRT cells
T2 construct: human wild-type CFTR cDNA
T2 sequence (P13569 whole entry): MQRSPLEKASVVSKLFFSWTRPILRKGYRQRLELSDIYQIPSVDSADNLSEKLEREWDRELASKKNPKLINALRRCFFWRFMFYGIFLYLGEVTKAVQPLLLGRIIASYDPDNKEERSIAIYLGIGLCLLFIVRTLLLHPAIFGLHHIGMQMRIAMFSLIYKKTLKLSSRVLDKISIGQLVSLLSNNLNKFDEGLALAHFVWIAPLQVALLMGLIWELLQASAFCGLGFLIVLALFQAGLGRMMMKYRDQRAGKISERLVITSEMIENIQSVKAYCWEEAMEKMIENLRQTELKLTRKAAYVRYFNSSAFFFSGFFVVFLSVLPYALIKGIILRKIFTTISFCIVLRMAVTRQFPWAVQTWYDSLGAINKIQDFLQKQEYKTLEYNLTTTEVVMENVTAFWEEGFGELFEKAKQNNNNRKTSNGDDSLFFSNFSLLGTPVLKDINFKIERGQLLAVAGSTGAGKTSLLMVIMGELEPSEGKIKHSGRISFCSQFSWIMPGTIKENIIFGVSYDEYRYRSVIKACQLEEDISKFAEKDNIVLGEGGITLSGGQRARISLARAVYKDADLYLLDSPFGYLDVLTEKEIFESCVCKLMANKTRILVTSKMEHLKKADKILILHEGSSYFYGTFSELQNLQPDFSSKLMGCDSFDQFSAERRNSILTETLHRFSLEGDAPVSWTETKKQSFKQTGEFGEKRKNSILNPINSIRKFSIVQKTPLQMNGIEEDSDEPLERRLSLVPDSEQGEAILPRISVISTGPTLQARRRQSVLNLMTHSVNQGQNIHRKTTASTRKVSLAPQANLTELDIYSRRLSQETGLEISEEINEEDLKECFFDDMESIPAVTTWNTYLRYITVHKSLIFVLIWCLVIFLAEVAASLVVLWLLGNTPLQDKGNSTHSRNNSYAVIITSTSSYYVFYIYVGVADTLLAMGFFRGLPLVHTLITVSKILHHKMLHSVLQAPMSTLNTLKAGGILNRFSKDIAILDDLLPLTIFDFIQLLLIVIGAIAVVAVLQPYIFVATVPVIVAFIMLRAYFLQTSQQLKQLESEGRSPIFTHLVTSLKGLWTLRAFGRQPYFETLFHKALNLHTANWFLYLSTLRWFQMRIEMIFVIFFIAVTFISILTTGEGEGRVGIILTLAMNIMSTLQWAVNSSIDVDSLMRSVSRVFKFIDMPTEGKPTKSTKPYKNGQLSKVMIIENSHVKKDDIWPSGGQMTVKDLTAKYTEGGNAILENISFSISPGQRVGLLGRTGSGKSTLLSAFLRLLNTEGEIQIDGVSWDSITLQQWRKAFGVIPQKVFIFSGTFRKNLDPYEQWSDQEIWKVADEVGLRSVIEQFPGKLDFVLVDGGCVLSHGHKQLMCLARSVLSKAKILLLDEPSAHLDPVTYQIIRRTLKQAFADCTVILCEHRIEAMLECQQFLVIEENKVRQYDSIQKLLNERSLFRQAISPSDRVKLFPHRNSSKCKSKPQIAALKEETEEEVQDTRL

[3] = target: T1, ANO1/CaCC (TMEM16A); assay: Eact-induced short-circuit current in ANO1-expressing FRT cells

SMILES: CCc1c(C)nc(SCC(=O)Nc2nc(-c3ccc(OC)cc3)cs2)[nH]c1=O [16A, T16Ainh-A01]
- Eact-induced short-circuit current in ANO1-expressing FRT cells, 30 μM [1]: Eact-induced ANO1-mediated short-circuit current was completely abolished by the specific inhibitor of ANO1 T16Ainh-A01

SMILES: O=C(O)c1ccc(/C=C2\SC(=S)N(c3cccc(C(F)(F)F)c3)C2=O)cc1 [compound 172, CFTRinh-172]
- gradient concentrations inhibiting lignan-activated CFTR iodide influx in FRT ce [2]: activation effect of these compounds could be inhibited by gradient concentrations of the known CFTR inhibitor CFTRinh-172

SMILES: COc1ccc([C@H]2OC[C@H]3[C@@H]2CO[C@@H]3c2ccc(OC)c(OC)c2)cc1OC [eudesmin]
- IC50 [3]: 200 µM
